Consider one compound from patent US11752125B2, “Anti-neuroinflammatory and protective compounds in Achillea fragrantissima” (THE STATE OF ISRAEL MINISTRY OF AGRICULTURE & RURAL …, priority 2013, dated 2023).

Format in all cases: cell-based, rat
The test system of one assay is IL-1β. Briefly: IL-1β secretion from LPS-stimulated microglial cells (ELISA). To be noted: LPS 100 ng/mL, 24 h. The method, then: (§1) Cultures of primary rat microglial cells were prepared from cerebral cortices of 1-2 day-old neonatal Wistar rats as described. Microglial cells were seeded at 24-well plastic plates at 1×10^5/well in RPMI-1640 containing 2% FBS, 2 mM glutamine, 100 U/mL penicillin, 100 µg/mL streptomycin, 1 mM sodium pyruvate, and 50 μM β-mercaptoethanol. Cells were cultured for 36 h before treatments. The research was conducted in accordance with the NIH guide for the care and use of laboratory animals, and was approved by the Institutional Animal Care and Use Committee of The Volcani Center, Agricultural Research Organization (IL-135/07, approval date Apr. 11, 2007). All efforts were made to minimize animal suffering, and to reduce the number of animals used.
For IL-1β measurements, 3.5×10^4 cells/well were plated on a 24-well tissue culture plate. After 24 h of incubation in DMEM containing 10% FBS, cells were stimulated with LPS (100 ng/mL) and treated with different concentrations of achillolide A. Conditioned media were collected twenty four hours later, and were tested with a rat IL1β ELISA kit (Novus Biologicals; CO, USA), according to the manufacturer's instructions.
2. Plate microglial cells (3.5×10^4 cells/well) on a 24-well tissue culture plate, in DMEM containing 10% FBS, 2 mM glutamine, 100 U/ml penicillin and 100 micrograms/mL streptomycin;
Microglial cells were treated with different concentrations of TTF, followed by stimulation with LPS (100 ng/mL). After 24 h, conditioned media were collected and tested for cytokine levels by ELISA. Cell viability was determined using the crystal violet assay (FIG. 9C). Values represent the means±SEM (n=4 for each treatment).
Microglial cells were treated with 20 μg/mL of achillolide A, followed by stimulation with LPS (4.5 ng/mL). After 5 h the levels of the indicated transcripts were measured by quantitative real-time PCR and the relative quantity (RQ) of the different transcripts were determined. […] The results are expressed as percentages relative to LPS-stimulated cells. […]
A general note: In an ELISA, binding on a coated surface is turned into a signal by an enzyme label.

A further assay has as its system NO. Nature of the assay: NO (nitrite) production by LPS-activated microglial cells (Griess). As to conditions: LPS 4.5 ng/mL, 20 h. The protocol:
as §1
For NO measurements, 1×10^5 microglial cells/well were plated in a 24-well tissue culture plate. Cells were stimulated with LPS (4.5 ng/mL) and concomitantly treated with achillolide A or a reference drug. NO levels in the culture medium were estimated with Griess reagent.
3. Activate microglial cells with lipopolysaccharide (LPS, 4.5 nanograms/mL);
In FIG. 21 A, microglial cells were treated with different concentrations of achillolide A, dexamethasone or memantine (as reference drugs) and were concomitantly activated by LPS (4.5 ng/mL) for 20 h. Cell conditioned supernatants were collected, and the levels of NO were measured using Griess reaction. Cytotoxicity was measured using the LDH method (FIG. 21B). Values represent the mean±SEM (n=12 for each treatment). ** p<0.01; ***p<0.001 relative to cells that were treated to LPS only.
Background: Griess reagent forms a coloured azo dye with nitrite.

The next assay relates to glutamate. Nature of the assay: Glutamate secretion from LPS-activated microglial cells. As to conditions: LPS 100 ng/mL, 20 h. The protocol:
For glutamate measurements, 3.5×10^4 cells/well were plated on a 24-well tissue culture plate. After 24 h of incubation in DMEM containing 10% FBS, cells were stimulated with LPS (100 ng/mL) and treated with different concentrations of achillolide A. Conditioned media were collected twenty hours later, and were tested for glutamate levels using a colorimetric enzymatic assay kit (glutamate assay kit, BioVision, CA, USA) according to the manufacturer's instructions. 7. Measure the levels of glutamate using a colorimetric enzymatic assay kit (glutamate assay kit, BioVision, CA, USA) according to the manufacturer's instructions. Microglial cells were treated with the indicated concentrations of achillolide A, followed by stimulation with LPS (100 ng/mL). After 20 h, conditioned media were collected and tested for glutamate levels by a commercial kit. Values represent the means±SEM (n=4 for each treatment). ** p<0.01; *** p<0.001, compared to LPS-stimulated cells.

The next assay relates to microglial cells. Nature of the assay: Cellular antioxidant activity (ABAP peroxyl radicals) in microglial cells. As to conditions: ABAP 0.6 mM, dexamethasone at nanomolar concentrations. The method, then:
Intracellular ROS production was detected using the non-fluorescent cell permeating compound, 2′7′-dichlorofluorescein diacetate (DCF-DA). DCF-DA is hydrolyzed by intracellular esterases and then oxidized by ROS to a fluorescent compound 2′-7′-DCF. Peroxyl radicals are generated by thermolysis of 2,2′-Azobis(amidinopropane) (ABAP) at physiological temperature. ABAP decomposes at approximately 1.36×10^−6s^−1 at 37° C., producing at most 1×10^12 radicals/mL/s. Microglial cells (130,000 cells/well) were plated in DMEM containing 2% FBS, 8.4 mM HEPES, 2 mM glutamine, 100 U/mL penicillin and 100 μg/mL streptomycin, onto 24 wells plates. In order to measure the ability of achillolide A to enter the cells and prevent the formation of DCF by ABAP-generated peroxyl radicals, cells were incubated for 1 h with achillolide A. Then cells were preloaded with DCF-DA for 30 min, washed twice with PBS, and ABAP (0.6 mM final concentration) was then added. The fluorescence, which indicates ROS levels, was measured in a plate reader with excitation at 485 nm and emission at 520 nm.
Cells were incubated for 1 h with different concentrations of achillolide A. Then, the cells were pre-loaded with DCF-DA for 30 min and washed. ABAP (0.6 mM) was added to the culture and ROS levels were measured at the indicated time points. […]

SMILES strings stand for the structures.

Regarding `C[C@@H]1C[C@H]2[C@@H]3CCC4=CC(=O)C=C[C@]4(C)[C@@]3(F)[C@@H](O)C[C@]2(C)[C@@]1(O)C(=O)CO` [dexamethasone, reference compound], in the assay on IL-1β, the “inhibition of IL-1β secretion” value is on record as 85%. Moreover, the “inhibition of NO produced by the activated cells” value with NO stood at 90%. In addition, the “inhibition of the LPS-induced levels of secreted glutamate” value in the assay on glutamate is 90%. The “inhibition of the ABAP-induced increase in ROS fluorescence” value in the assay on microglial cells was 75%.
